Key:
[1] = system: empty vector-transfected parental 1321N1 cells; experiment: Ca2+ mobilization in empty vector-transfected parental 1321N1 cells; format: cell-based, human; conditions: 10 μM; data not shown
[2] = system: Nr4a1, Nr4a2, Nr4a3, c-fos mRNA in NRCMs; experiment: mRNA expression analysis of Nr4a1, Nr4a2, Nr4a3 and c-fos in NRCMs; format: cell-based, rat; conditions: for induction of Nr4a1 mRNA at 2 h versus isoproterenol alone: 30 μM Compound 89 or 100 μM ATP in the presence of 10 μM isoproterenol
Protocol: Neonatal rat cardiomyocytes were seeded in a collagen I-coated 96-well plate, then cultured and maintained for a week before the ligand stimulation assay. […] After stimulation, cDNA samples were synthesized from lysates using TaqMan Gene Expression Cells-to-Ct kits (Thermo Fisher Scientific) according to the manufacturer’s instructions, followed by quantitative real-time polymerase chain reaction analysis using a Prism 7900HT sequence detector (Thermo Fisher Scientific). Thermal cycling parameters were 2 min at 50 °C and 10 min at 95 °C, followed by 40 cycles at 95 °C for 15 sec and 60 °C for 1 min. The mRNA levels were analysed with the comparative Ct method (2^−ΔΔCt) using Rplp0 as the housekeeping gene. The TaqMan Gene Expression assays (Thermo Fisher Scientific) used herein were as follows: Rn01533237_m1 (Nr4a1), Rn00570936_m1 (Nr4a2), Rn01354012_m1 (Nr4a3), Rn02396759_m1 (c-fos), and Rn03302271_gH (Rplp0).

[3] = system: neonatal rat cardiomyocytes (NRCMs); experiment: Isoproterenol-induced cardiac hypertrophy in NRCMs; format: cell-based; conditions: 10 μM isoproterenol
Protocol: Neonatal rat cardiomyocytes were seeded in a 96-well collagen I plate at a density of 5000 cells/well. They were incubated overnight and then transferred to a serum-free medium for one day. Next, the cells were treated with the indicated concentrations of compounds and 10 μM isoproterenol, and then incubated for 2 days. To quantify cardiomyocyte hypertrophy via filamentous actin staining, NRCMs were fixed with 4% paraformaldehyde (Wako) and permeabilized with 0.1% Triton X-100 (MP Biomedicals, France), followed by blocking with 1% bovine serum albumin (Wako) and staining with 2 μM phalloidin–fluorescein isothiocyanate (phalloidin-FITC; Sigma-Aldrich, Japan) and 10 μM Hoechst 33258 (Dojindo). Quantification of FITC-fluorescence intensity and cell number was performed using an IN Cell Analyzer 6000 (GE Healthcare Japan). The signals from obtained images were quantitated by means of a customized image analysis algorithm using the IN Cell Developer Toolbox (GE Healthcare Japan). Hypertrophic scores were calculated as the product of FITC-fluorescence intensity and cell area per cell as programmed by GE Healthcare technical support experts.

[4] = target: T1, P2Y2 in neonatal rat cardiomyocytes (NRCMs) (Rattus norvegicus, UniProt P41232); experiment: cell-based
T1 sequence (P41232 whole entry): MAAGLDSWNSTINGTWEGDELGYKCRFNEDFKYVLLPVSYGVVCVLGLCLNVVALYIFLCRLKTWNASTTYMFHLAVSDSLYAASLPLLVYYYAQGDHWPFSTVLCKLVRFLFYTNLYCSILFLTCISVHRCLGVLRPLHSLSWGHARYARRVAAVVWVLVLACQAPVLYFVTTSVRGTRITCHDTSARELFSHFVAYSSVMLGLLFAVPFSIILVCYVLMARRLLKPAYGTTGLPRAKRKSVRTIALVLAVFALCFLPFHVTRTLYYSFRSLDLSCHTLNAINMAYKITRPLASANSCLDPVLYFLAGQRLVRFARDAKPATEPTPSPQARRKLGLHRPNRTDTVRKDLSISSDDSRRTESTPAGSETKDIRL

[5] = target: T2, mouse P2Y2 receptors (Mus musculus, UniProt P35383); experiment: FLIPR Ca2+ mobilization assay in mP2Y2-1321N1 cells; format: cell-based
T2 construct: expressed in transfected cells
T2 sequence (P35383 whole entry): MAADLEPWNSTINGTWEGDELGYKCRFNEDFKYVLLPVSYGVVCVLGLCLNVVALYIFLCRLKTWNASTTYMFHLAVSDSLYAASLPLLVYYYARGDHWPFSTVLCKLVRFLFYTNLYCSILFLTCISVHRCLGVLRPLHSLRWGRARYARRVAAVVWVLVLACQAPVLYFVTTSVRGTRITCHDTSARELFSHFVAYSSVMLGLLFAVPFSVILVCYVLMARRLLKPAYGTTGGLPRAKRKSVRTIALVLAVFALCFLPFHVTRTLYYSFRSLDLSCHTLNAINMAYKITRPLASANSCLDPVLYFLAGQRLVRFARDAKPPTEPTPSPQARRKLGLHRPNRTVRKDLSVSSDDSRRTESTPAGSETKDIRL

[6] = target: T3, human P2Y1 receptor (Homo sapiens, UniProt P47900); experiment: FLIPR Ca2+ mobilization assay in transiently hP2Y1-expressing 1321N1 cells; format: cell-based; conditions: at up to 30 µM
T3 construct: expressed in transfected cells; host or cells: 1321N1 human astrocytoma cells, pcDNA3.1(+) plasmid, transient
T3 sequence (P47900 whole entry): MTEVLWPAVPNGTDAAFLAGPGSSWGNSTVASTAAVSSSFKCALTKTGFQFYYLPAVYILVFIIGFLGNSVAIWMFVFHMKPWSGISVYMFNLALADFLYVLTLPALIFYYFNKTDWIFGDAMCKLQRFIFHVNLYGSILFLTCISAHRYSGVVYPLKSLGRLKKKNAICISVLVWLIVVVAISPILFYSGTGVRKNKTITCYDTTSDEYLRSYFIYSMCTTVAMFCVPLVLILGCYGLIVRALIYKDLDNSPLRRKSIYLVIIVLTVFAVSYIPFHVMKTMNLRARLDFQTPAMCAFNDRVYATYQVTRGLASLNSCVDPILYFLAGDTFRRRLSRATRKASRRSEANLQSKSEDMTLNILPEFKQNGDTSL

[7] = target: T4, human P2Y4 receptor (Homo sapiens, UniProt P51582); experiment: FLIPR Ca2+ mobilization assay in transiently hP2Y4-expressing 1321N1 cells; format: cell-based; conditions: at up to 30 µM
T4 construct: expressed in transfected cells; host or cells: 1321N1 human astrocytoma cells, pcDNA3.1(+) plasmid, transient
T4 sequence (P51582 whole entry): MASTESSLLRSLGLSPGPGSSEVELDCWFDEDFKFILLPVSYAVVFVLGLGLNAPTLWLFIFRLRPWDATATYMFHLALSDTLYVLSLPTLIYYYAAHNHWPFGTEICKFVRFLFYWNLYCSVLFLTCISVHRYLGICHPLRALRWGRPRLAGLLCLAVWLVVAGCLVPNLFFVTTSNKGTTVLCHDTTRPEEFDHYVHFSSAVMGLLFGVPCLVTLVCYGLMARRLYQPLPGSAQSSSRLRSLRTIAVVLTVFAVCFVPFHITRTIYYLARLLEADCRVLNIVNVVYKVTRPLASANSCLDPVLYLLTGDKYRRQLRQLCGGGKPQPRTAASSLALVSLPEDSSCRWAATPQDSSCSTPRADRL

[8] = target: T5, human P2Y6 receptor (Homo sapiens, UniProt Q15077); experiment: FLIPR Ca2+ mobilization assay in transiently hP2Y6-expressing 1321N1 cells; format: cell-based; conditions: at up to 30 µM
T5 construct: expressed in transfected cells; host or cells: 1321N1 human astrocytoma cells, pcDNA3.1(+) plasmid, transient
T5 sequence (Q15077 whole entry): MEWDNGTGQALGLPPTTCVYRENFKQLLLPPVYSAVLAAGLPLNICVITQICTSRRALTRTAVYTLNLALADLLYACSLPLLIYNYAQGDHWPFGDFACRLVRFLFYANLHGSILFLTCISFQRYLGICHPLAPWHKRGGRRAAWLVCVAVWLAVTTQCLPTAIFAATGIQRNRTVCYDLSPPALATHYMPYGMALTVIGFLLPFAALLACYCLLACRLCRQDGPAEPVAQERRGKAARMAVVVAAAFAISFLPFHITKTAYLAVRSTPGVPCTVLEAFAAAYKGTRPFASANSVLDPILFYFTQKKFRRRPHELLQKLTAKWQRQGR

[9] = target: T6, human P2Y11 receptor (Homo sapiens, UniProt Q96G91); experiment: FLIPR Ca2+ mobilization assay in transiently hP2Y11-expressing 1321N1 cells; format: cell-based; conditions: at up to 30 µM
T6 construct: expressed in transfected cells; host or cells: 1321N1 human astrocytoma cells, pcDNA3.1(+) plasmid, transient
T6 sequence (Q96G91 1-374): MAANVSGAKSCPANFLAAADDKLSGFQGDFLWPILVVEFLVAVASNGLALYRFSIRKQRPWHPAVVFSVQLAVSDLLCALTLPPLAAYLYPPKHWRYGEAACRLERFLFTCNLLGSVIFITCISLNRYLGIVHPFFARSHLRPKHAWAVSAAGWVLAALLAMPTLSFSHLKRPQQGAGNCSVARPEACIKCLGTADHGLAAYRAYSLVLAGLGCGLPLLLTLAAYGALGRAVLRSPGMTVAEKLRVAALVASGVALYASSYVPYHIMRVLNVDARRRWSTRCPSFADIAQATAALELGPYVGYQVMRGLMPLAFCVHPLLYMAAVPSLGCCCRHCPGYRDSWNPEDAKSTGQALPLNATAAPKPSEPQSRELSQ

[10] = target: T7, human P2Y12 receptor (Homo sapiens, UniProt Q9H244); experiment: cAMP accumulation assay in hP2Y12-1321N1 cells; format: cell-based; conditions: at up to 30 µM
T7 construct: expressed in transfected cells
T7 sequence (Q9H244 whole entry): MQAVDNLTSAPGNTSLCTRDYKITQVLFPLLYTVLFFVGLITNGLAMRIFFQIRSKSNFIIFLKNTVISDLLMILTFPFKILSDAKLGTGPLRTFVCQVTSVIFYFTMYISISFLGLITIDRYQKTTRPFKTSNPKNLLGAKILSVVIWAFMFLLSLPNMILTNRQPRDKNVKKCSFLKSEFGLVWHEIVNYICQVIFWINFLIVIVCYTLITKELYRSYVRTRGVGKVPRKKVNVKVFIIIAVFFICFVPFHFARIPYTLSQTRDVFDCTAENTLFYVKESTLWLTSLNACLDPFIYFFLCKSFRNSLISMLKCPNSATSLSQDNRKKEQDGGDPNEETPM

[11] = system: β-adrenergic receptor; experiment: cAMP signalling in parental 1321N1 cells; format: cell-based, human
[12] = target: T1, P2Y2 in neonatal rat cardiomyocytes (NRCMs); conditions: without ATP
[13] = target: human P2Y2 receptors (Homo sapiens, UniProt P41231); experiment: cell-based
Sequence of human P2Y2 receptors (P41231 whole entry): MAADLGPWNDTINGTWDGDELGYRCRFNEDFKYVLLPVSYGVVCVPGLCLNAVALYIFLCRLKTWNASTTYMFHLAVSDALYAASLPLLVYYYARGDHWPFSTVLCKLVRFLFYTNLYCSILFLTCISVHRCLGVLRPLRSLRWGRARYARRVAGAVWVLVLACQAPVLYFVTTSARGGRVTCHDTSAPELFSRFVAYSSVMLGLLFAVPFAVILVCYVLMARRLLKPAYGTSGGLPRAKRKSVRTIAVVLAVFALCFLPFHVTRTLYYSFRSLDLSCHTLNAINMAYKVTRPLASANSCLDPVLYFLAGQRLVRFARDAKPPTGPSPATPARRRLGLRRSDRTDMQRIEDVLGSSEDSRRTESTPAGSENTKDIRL

[14] = read-out: extrapolated maximum efficacy with respect to 10 μM ATP

`Nc1ncnc2c1ncn2[C@@H]1O[C@H](COP(=O)(O)OP(=O)(O)O)[C@@H](O)[C@H]1O` [ADP, adenosine-5′-diphosphate] was tested. Which “activity in empty vector-transfected parental 1321N1 cells” value [1] did it give?
The value was “lacked activity”.

With `Nc1ncnc2c1ncn2[C@@H]1O[C@H](COP(=O)(O)OP(=O)(O)OP(=O)(O)O)[C@@H](O)[C@H]1O` [ATP, adenosine-5′-triphosphate, reference compound] as the compound, how does the “expression of all Nr4a genes” value ([2]; 10 μM, steadily after 30 min) read?
Its value is “increased”.

And the “induction of Nr4a1 mRNA at 2 h versus isoproterenol alone” value [2]?
Its value is “did not affect induction”.

And the “effect on isoproterenol-induced cardiac hypertrophy (hypertrophic score)” value ([3]; 10 and 100 μM, P = 0.568)?
Its value is “no significant effects”.

What about the “activity in empty vector-transfected parental 1321N1 cells” value [1] of the same compound?
The value was “lacked activity”.

And the EC50 ([4]; EC50 for ATP, NRCMs, in the absence of Compound 89)?
Its EC50 is 2600 nM.

How did the Emax [5, 14] turn out when `CCN(Cc1ccc(F)cc1)Cc1cc(=O)c2ccc(C)c(C)c2[nH]1` [Compound 89, 2-((ethyl(4-fluorobenzyl)amino)methyl)-7,8-dimethylquinolin-4(1H)-one] was run?
Its Emax is 50.9%.

What about the EC50 ([5]; stably-expressing mP2Y2-1321N1 cells (Fig. 1b), read-out: EC50 (potency), agonistic activity) of the same compound?
Its EC50 is 2700 nM.

And the “agonistic activity against hP2Y1” value [6]?
Its value is “lacked agonistic activity”.

What about the “agonistic activity against hP2Y4” value [7] of the same compound?
The value was “lacked agonistic activity”.

And the “agonistic activity against hP2Y6” value [8]?
Its value is “lacked agonistic activity”.

And the “agonistic activity against hP2Y11” value [9]?
Its value is “lacked agonistic activity”.

What about the “agonistic activity against hP2Y12” value [10] of the same compound?
The value was “lacked agonistic activity”.

What about the “induction of Nr4a1 mRNA at 2 h versus isoproterenol alone” value [2] of the same compound?
Its value is “greater”.

What about the “effect on ATP-induced gene expression changes” value ([2]; co-administration at 10 and 30 μM with ATP, concentration-dependent) of the same compound?
Its value is “enhanced”.

And the “changes in gene expression (Nr4a1, Nr4a2, Nr4a3, c-fos) by compound alone” value ([2]; without ATP, up to 90 min)?
The value was “did not induce any changes in gene expression”.

And the “attenuation of hypertrophy after 48 h of treatment” value ([3]; 30 μM)?
The value was “Complete attenuation”.

What about the “effect on isoproterenol-induced cardiac hypertrophy (hypertrophic score)” value ([3]; 1 to 30 μM, concentration-dependent) of the same compound?
Its value is “attenuated”.

What about the “effect on β-adrenergic receptor-mediated cAMP signalling” value [11] of the same compound?
The value was “does not affect”.

What about the intrinsic agonistic activity [12] of the same compound?
The intrinsic agonistic activity was “no intrinsic agonistic activity”.

And the EC50 ([13]; EC50 (potency), agonistic activity, transiently-expressing hP2Y2-1321N1 cells (Fig. 1b))?
The EC50 was 10500 nM.

What about the EC50 ([13]; EC50 for Compound 89, hP2Y2 stably-expressing 1321N1 cells, in the absence of ATP) of the same compound?
The EC50 was 53900 nM.

And the EC50 ([13]; EC50 for Compound 89, hP2Y2 stably-expressing 1321N1 cells, in the presence of 10 nM ATP)?
Its EC50 is 2500 nM.

And the Emax [13, 14]?
Its Emax is 65.8%.

And the EC50 ([4]; EC50 for Compound 89, NRCMs, in the presence of 1 μM ATP)?
The EC50 was 1300 nM.

What about the EC50 ([4]; EC50 for Compound 89, NRCMs, in the presence of 30 μM ATP) of the same compound?
The EC50 was 110 nM.

For `O=c1ccn([C@@H]2O[C@H](COP(=O)(O)OP(=O)(O)O)[C@@H](O)[C@H]2O)c(=O)[nH]1` [UDP, uridine-5′-diphosphate], which “activity in empty vector-transfected parental 1321N1 cells” value [1] is on record?
Its value is “lacked activity”.

`O=c1ccn([C@@H]2O[C@H](COP(=O)(O)OP(=O)(O)OP(=O)(O)O)[C@@H](O)[C@H]2O)c(=O)[nH]1` [UTP, uridine-5′-triphosphate] was tested. Which “activity in empty vector-transfected parental 1321N1 cells” value [1] did it give?
The value was “lacked activity”.

With `CC(C)NCC(O)c1ccc(O)c(O)c1` (centres unmarked) [isoproterenol, reference compound] as the compound, how does the “induction of Nr4a1 mRNA at 2 h versus vehicle” value ([2]; 10 μM isoproterenol, P = 5 × 10^−4) read?
Its value is “significantly induced”.
